Some test systems named below: NCI-H226; SK-MEL-2; LOX IMVI; RXF 393; IGROV-1; HCT-116; SF-295; SR; SF-268; SW-620; HT-29; HOP-62; A498; MDA-MB-231; OVCAR-8; U-251; SK-MEL-28; DLD-1; HOP-92; M14.
Holding throughout (assay): NCI-60 cell line screen, 48 h

Molecules are shown by their SMILES. Counter-ions that a name gives are not always drawn.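 How tested: cells in 96-well plates exposed to compound for 48 hours at five concentrations. GI50 marks 50% less growth.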 The source made the active and inactive calls. Rule as the data show it: active = GI50 up to about 1.1 µM and inactive = higher.

Turning to `Oc1ccc(Cn2c(-c3ccc(O)cc3)nc3ccccc32)cc1`, the GI50 in the assay on NCI-H226, in the assay on SK-MEL-2, in the assay on LOX IMVI, in the assay on RXF 393, in the assay on IGROV-1 and in the assay with HCT-116 was > 100 µM (inactive) each time. For the same compound, the GI50 in the assay on SF-295 is > 100 µM (inactive); in the assay with SR, > 31.6 µM (inactive); in the assay with SF-268, > 100 µM (inactive); in the assay with SW-620, > 100 µM (inactive); with HT-29, > 100 µM (inactive); with HOP-62, > 100 µM (inactive). The GI50 in the assay on A498, in the assay with MDA-MB-231, with OVCAR-8, in the assay with U-251, in the assay with SK-MEL-28 and in the assay with DLD-1 was > 100 µM (inactive) in each case. The GI50 in the assay on HOP-92 and with M14 was > 100 µM (inactive) throughout.

For `Cc1n(CC(C)C)c2c([n+]1C)C(=O)c1ccccc1C2=O`, the GI50 with NCI-H226 is 0.311 µM (active); with SK-MEL-2, 0.13 µM (active); with LOX IMVI, 0.0746 µM (active); in the assay with RXF 393 it was 0.811 µM (active); in the assay on IGROV-1, 0.0224 µM (active); in the assay with HCT-116 it was 0.0494 µM (active). Besides, the GI50 with SF-295 is 0.415 µM (active); in the assay with SR, 0.301 µM (active); with SF-268, < 0.0169 µM (active); in the assay with SW-620, 0.0432 µM (active); in the assay on HT-29, 0.0241 µM (active); with HOP-62, 0.131 µM (active). In addition, the GI50 in the assay on A498 is 0.32 µM (active); in the assay with MDA-MB-231, 0.0486 µM (active); in the assay with OVCAR-8, 0.0265 µM (active); with U-251, 0.0588 µM (active); in the assay with SK-MEL-28, 1.06 µM (active); with DLD-1, 0.0813 µM (active). The GI50 was 0.641 µM (active) in the assay with HOP-92 and 0.27 µM (active) in the assay on M14.

For `O=C(c1ccc(F)cc1)c1cccc(C(=O)c2ccc(F)cc2)n1`, the GI50 in the assay with NCI-H226 was > 45.4 µM (inactive); with SK-MEL-2 it was 27.7 µM (inactive); with LOX IMVI it was 60.7 µM (inactive); with RXF 393 it was 5.56 µM (inactive); with IGROV-1, 24.9 µM (inactive); in the assay with HCT-116 it was 22.9 µM (inactive). Further, the GI50 in the assay on SF-295 was 3.4 µM (inactive); in the assay on SR it was > 100 µM (inactive); in the assay on SF-268, 24.6 µM (inactive); in the assay on SW-620, > 83.9 µM (inactive); in the assay with HT-29, > 100 µM (inactive); with HOP-62, 20.1 µM (inactive). Also, the GI50 is > 52.7 µM (inactive) in the assay with A498; 38.6 µM (inactive) in the assay on MDA-MB-231; 81.5 µM (inactive) with OVCAR-8; 19.1 µM (inactive) with U-251; > 100 µM (inactive) with SK-MEL-28; > 100 µM (inactive) in the assay with DLD-1. Also, the GI50 in the assay on HOP-92 was 15.8 µM (inactive); with M14, 62.2 µM (inactive).

`O=C1C(Br)=CC2(C=C1Br)CCNC1=C2C2=NCCc3c[nH]c(c32)C1=O`: the GI50 was 1.27 µM (inactive) in the assay on NCI-H226; 0.183 µM (active) with SK-MEL-2; 0.0615 µM (active) in the assay with LOX IMVI; 0.0681 µM (active) in the assay on RXF 393; 0.153 µM (active) in the assay with IGROV-1; 0.0233 µM (active) in the assay on HCT-116. The GI50 is 1.25 µM (inactive) in the assay with SF-295; 0.0431 µM (active) in the assay with SR; 0.347 µM (active) with SF-268; 0.0255 µM (active) in the assay with SW-620; 0.0275 µM (active) with HT-29; 2.32 µM (inactive) with HOP-62. The GI50 is 1.23 µM (inactive) in the assay on A498; 0.149 µM (active) in the assay with MDA-MB-231; 0.0736 µM (active) with OVCAR-8; 0.398 µM (active) in the assay with U-251; 0.163 µM (active) in the assay on SK-MEL-28; 0.0182 µM (active) in the assay on DLD-1. Also, the figures for the GI50 in the assay with HOP-92 and in the assay with M14 were 0.0817 µM (active) and 0.0703 µM (active), respectively.

Regarding `C/C(=N\NS(=O)(=O)c1ccc(C)cc1)C(CN(C)C)C(c1ccccc1)c1c(O)c2ccccc2oc1=O` (stereo not drawn), the GI50 in the assay with NCI-H226 was > 100 µM (inactive); in the assay on SK-MEL-2, > 100 µM (inactive); with LOX IMVI it was > 100 µM (inactive); with RXF 393 it was 55.2 µM (inactive); in the assay on IGROV-1 it was > 100 µM (inactive); in the assay with HCT-116 it was > 100 µM (inactive). For the same compound, the GI50 in the assay with SF-295 is > 100 µM (inactive); in the assay with SR, > 60 µM (inactive); with SF-268, > 100 µM (inactive); with SW-620, > 69.3 µM (inactive); with HT-29, > 100 µM (inactive); with HOP-62, 89.9 µM (inactive). For the same compound, the GI50 with A498, in the assay on MDA-MB-231, in the assay on OVCAR-8, with U-251, in the assay on SK-MEL-28 and in the assay with DLD-1 was > 100 µM (inactive) throughout. Besides, the GI50 was 60 µM (inactive) in the assay with HOP-92 and > 100 µM (inactive) in the assay on M14.

As for `COc1cc(/C=C(\OC(C)=O)c2ccc3c(c2)OCO3)cc(OC)c1OC`, the GI50 in the assay on NCI-H226 is 11.5 µM (inactive); with SK-MEL-2, 22.8 µM (inactive); in the assay with LOX IMVI, 16.1 µM (inactive); in the assay with RXF 393 it was 24.8 µM (inactive); in the assay with IGROV-1, 10.9 µM (inactive); with HCT-116, 18.2 µM (inactive). Also, the GI50 in the assay on SF-295 was 23.8 µM (inactive); with SR, 8.2 µM (inactive); with SF-268 it was 20 µM (inactive); with SW-620, 28.5 µM (inactive); in the assay with HT-29, 22.3 µM (inactive); in the assay with HOP-62 it was 20 µM (inactive). Moreover, the GI50 with A498 is 16.1 µM (inactive); in the assay with OVCAR-8, 16.3 µM (inactive); in the assay with U-251, 18.5 µM (inactive); in the assay with SK-MEL-28, 17.7 µM (inactive); with DLD-1 it was 18.6 µM (inactive); in the assay on HOP-92, 15.6 µM (inactive). Further, the GI50 in the assay with M14 is 16.3 µM (inactive).

As to `CC(=O)N(C)c1ccc(Nc2cc(C)nc3ccc4nc[nH]c4c23)cc1` [ACODAZOLE HYDROCHLORIDE], the GI50 in the assay on NCI-H226 was 6.27 µM (inactive); with SK-MEL-2, 10.8 µM (inactive); in the assay with LOX IMVI, 5.15 µM (inactive); with RXF 393, 9.25 µM (inactive); in the assay on IGROV-1, 12.4 µM (inactive); in the assay on HCT-116, 4.55 µM (inactive). Moreover, the GI50 with SF-295 is 14.1 µM (inactive); in the assay on SR it was 3.29 µM (inactive); in the assay with SF-268, 8.11 µM (inactive); in the assay on SW-620 it was 4.88 µM (inactive); with HT-29, 11.3 µM (inactive); in the assay with HOP-62 it was 6.19 µM (inactive). The GI50 was 10.4 µM (inactive) with A498; 13.6 µM (inactive) with MDA-MB-231; 5.97 µM (inactive) with OVCAR-8; 8.09 µM (inactive) with U-251; 15.1 µM (inactive) in the assay with SK-MEL-28; 19.4 µM (inactive) in the assay with DLD-1. The GI50 in the assay on HOP-92 is 2.55 µM (inactive); with M14 it was 10.8 µM (inactive).

Consider `COC(=O)C[C@](O)(CCCC(C)(C)O)C(=O)O[C@@H]1C(OC)=C[C@]23CCCN2CCc2cc4c(cc2[C@H]13)OCO4` [OMACETAXINE MEPESUCCINATE], for which the GI50 with NCI-H226 is 0.09 µM (active); in the assay on SK-MEL-2, 0.259 µM (active); with LOX IMVI, 0.0444 µM (active); with RXF 393, 0.107 µM (active); in the assay with IGROV-1 it was 0.129 µM (active); in the assay with SF-295, 0.152 µM (active). Also, the GI50 in the assay with SR was 0.0327 µM (active); with SF-268, 0.149 µM (active); with SW-620, 0.0682 µM (active); in the assay on HT-29, 0.115 µM (active); in the assay with HOP-62, 0.0597 µM (active); in the assay with A498, 0.0395 µM (active). For the same compound, the GI50 is 1.7 µM (inactive) in the assay with MDA-MB-231; 0.146 µM (active) with OVCAR-8; 0.0571 µM (active) in the assay with U-251; 0.111 µM (active) in the assay with SK-MEL-28; 0.0231 µM (active) with DLD-1; 0.0869 µM (active) with HOP-92. Also, the GI50 in the assay with M14 is 1.21 µM (inactive).

(Values after ChEMBL document CHEMBL1201862, “PubChem BioAssay data set” (2004).)
